According to patent US20090047244A1, “MACROCYCLIC SERINE PROTEASE INHIBITORS I” (Idenix Pharmaceuticals, Inc., priority 2007, published 2009):
Where two headings read alike, the source gives them in different places.

Conditions: rcm bond

SMILES: COc1ccc2c(OCC[C@@H]3NC(=O)N(C)CCCCC=C[C@@H]4C[C@@]4(C(=O)NS(=O)(=O)C4CC4)NC3=O)cc(-c3ccccc3)nc2c1
- ring closure, yield of all isomers (from C=CCCCCN(C)C(=O)N[C@@H](CCOc1cc(-c2ccccc2)nc2cc(OC)ccc12)C(=O)N[C@]1(C(=O)NS(=O)(=O)C2CC2)C[C@H]1C=C, Hoveyda-Grubbs 2nd generation, DCM, 1.5 mM, 100.0 °C, 1.0 h): 7.9%

SMILES: CCOC(=O)[C@@]12C[C@H]1/C=C\CCCCN(C)C(=O)N[C@@H](CCO[Si](C)(C)C(C)(C)C)C(=O)N2
- ring closure, yield of all isomers (from C=CCCCCN(C)C(=O)N[C@@H](CCO[Si](C)(C)C(C)(C)C)C(=O)N[C@]1(C(=O)OCC)C[C@H]1C=C, Hoveyda-Grubbs 1st generation, DCM, 1.96 mM, 40.0 °C, 24.0 h): 50%

SMILES: CCOC(=O)[C@@]12C[C@H]1C=CCCCCN(C)C(=O)N[C@@H](CCOc1cc(-c3ccccc3)nc3cc(OC)ccc13)C(=O)N2
- ring closure, yield of all isomers (from C=CCCCCN(C)C(=O)N[C@@H](CCOc1cc(-c2ccccc2)nc2cc(OC)ccc12)C(=O)N[C@]1(C(=O)OCC)C[C@H]1C=C, Hoveyda-Grubbs 1st generation, DCM, 1.6 mM, 40.0 °C, 16.0 h): 22%

SMILES: CCOC(=O)[C@@]12C[C@H]1C=CCCCCN(C)C(=O)N[C@@H](CO[Si](C)(C)C(C)(C)C)C(=O)N2
- ring closure, yield of all isomers (from C=CCCCCN(C)C(=O)N[C@@H](CO[Si](C)(C)C(C)(C)C)C(=O)N[C@]1(C(=O)OCC)C[C@H]1C=C, Hoveyda-Grubbs 1st generation, 1,2-dichloroethane, 9.9 mM, 70.0 °C, 16.0 h): 48.1%

SMILES: CCOC(=O)[C@@]12C[C@H]1C=CCCCCCN(C)C(=O)N[C@@H](CCOc1cc(-c3ccccc3)nc3cc(OC)ccc13)C(=O)N2
- ring closure, yield of all isomers (from C=CCCCCCN(C)C(=O)N[C@@H](CCOc1cc(-c2ccccc2)nc2cc(OC)ccc12)C(=O)N[C@]1(C(=O)OCC)C[C@H]1C=C, Hoveyda-Grubbs 1st generation, DCM, 1.6 mM, 40.0 °C, 16.0 h): 64%
